Test results as given in US20190076482A1, “ENHANCED ORGANOID FORMATION AND INTESTINAL STEM CELL RENEWAL” (THE JOHNS HOPKINS UNIVERSITY, priority 2016, published 2019).

Tests used:
WT organoids = assay: Wnt inhibitor treatment of WT control organoids; format: cell-based, mouse; conditions: for bud formation: controls
Description: (§1) To better define the role of Hmga1 in regulating Wnt signaling, we cultured Hmga1 organoids in the absence of the Wnt receptor agonist, R-spondin 1 (R-spo1), which is essential for organoid formation in this culture system. R-spo1 is secreted by intestinal stromal cells and binds to the Lgr5 receptor to activate Wnt signaling. The inventors discovered a dramatic difference in the response of Hmga1 organoids to the absence of R-spo1 as compared to the WT controls: Hmga1 organoids continued to survive and proliferate after 2 weeks, while the WT organoids lost their 3D structural organization and ultimately died by day 5 (FIG. 9). […] To further test the link between Hmga1 and Wnt, we treated organoids with the Wnt inhibitors, C59 and IWP-2, both of which block Wnt-mediated transcription and cell proliferation by inhibiting porcupine (PORCN), a protein required for Wnt palmitoylation, secretion, and biological activity. […] The blunted response of Hmga1 organoids to Wnt inhibition further highlights the ability of Hmga1 to amplify Wnt signaling to maintain and support ISCs.
Organoid culture and replating assay. Mouse organoids were established and maintained from isolated crypts of the proximal small intestine as described previously^1-7. The basic culture medium (advanced Dulbecco's modified Eagle's medium/F12 supplemented with penicillin/streptomycin, 10 mmol/l HEPES, 13 Glutamax, 13 B27 [all from Life Technologies], and 1 mmol/l N-acetylcysteine [Sigma]) was supplemented with 50 ng/ml murine recombinant EGF (Peprotech), R-spondin 1 (1 μg/ml), and Noggin (10 ng/ml). Wnt inhibitors C59 and IWP-2 are commercially available (Abcam). Conditioned media was produced using HEK293T cells stably transfected with HA-mouse Rspo1-Fc (a gift from Calvin Kuo, Stanford University). Advanced DMEM/F12 supplemented with penicillin/streptomycin, 10 mmol/1 HEPES, and 13 Glutamax was conditioned for 1 week. For the replating assay, an equal number of organoids from each model were mechanically dispersed with a 10 mL pipet after 3-5 days in culture and replated using the conditions described above.

Hmga1 organoids = assay: Wnt inhibitor treatment of Hmga1 organoids; format: cell-based, mouse
Description: as §1
Organoid culture and replating assay. Mouse organoids were established and maintained from isolated crypts of the proximal small intestine as described previously^1-7. […]

| SMILES | organoid proliferation (WT organoids; WT controls, exposure to as little as 0.5 μM (FIG. 4f)) | organoid survival (Hmga1 organoids; up to 2μM of C59 (FIG. 4f)) | bud formation (WT organoids; 0.5 μM (FIG. 4f)) | bud formation (WT organoids; 1 μM IWP-2 (FIG. 4f)) | organoid survival and bud formation (Hmga1 organoids; 1 μM of IWP-2 (FIG. 4f)) |
| --- | --- | --- | --- | --- | --- |
| Cc1cc(-c2ccc(CC(=O)Nc3ccc(-c4cccnc4)cc3)cc2)ccn1 [C59] | failed to proliferate | able to survive |  |  |  |
| Cc1ccc2nc(NC(=O)CSc3nc4c(c(=O)n3-c3ccccc3)SCC4)sc2c1 [IWP-2] |  |  | few buds | no buds | survive and form buds |
